Assay results as given in ChEMBL document CHEMBL2074269, “The interaction of n-tetraalkylammonium compounds with a human organic cation transporter, hOCT1” (J Pharmacol Exp Ther, 1999).

Molecular target: T1, Solute carrier family 22 member 1 (Homo sapiens, UniProt O15245)
T1 sequence (O15245 whole entry): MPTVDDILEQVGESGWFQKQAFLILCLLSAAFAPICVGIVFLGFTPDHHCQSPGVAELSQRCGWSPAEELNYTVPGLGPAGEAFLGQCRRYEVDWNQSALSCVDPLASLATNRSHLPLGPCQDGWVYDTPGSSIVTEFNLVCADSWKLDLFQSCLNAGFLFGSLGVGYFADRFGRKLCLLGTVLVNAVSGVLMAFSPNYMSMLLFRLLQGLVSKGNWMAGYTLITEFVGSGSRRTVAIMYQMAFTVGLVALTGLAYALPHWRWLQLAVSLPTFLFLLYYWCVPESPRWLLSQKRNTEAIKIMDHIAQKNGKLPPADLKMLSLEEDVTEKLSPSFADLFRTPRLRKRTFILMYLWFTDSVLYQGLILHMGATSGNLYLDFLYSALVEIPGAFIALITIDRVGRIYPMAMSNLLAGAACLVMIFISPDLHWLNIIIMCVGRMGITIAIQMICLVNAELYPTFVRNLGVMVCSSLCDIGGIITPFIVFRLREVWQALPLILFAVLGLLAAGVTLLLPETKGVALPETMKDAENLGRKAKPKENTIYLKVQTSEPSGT
Assay type: functional, cell-based, HeLa

Compound	IC50 [µM]
CCC[N+](CCC)(CCC)CCC [TETRAPROPYLAMMONIUM]	90
CCCCCC[N+](CCCCCC)(CCCCCC)CCCCCC [TETRAHEXYLAMMONIUM]	3
CCCC[N+](CCCC)(CCCC)CCCC [TETRABUTHYLAMMONIUM]	52
